Data from patent publication US10047081B2, “BACE1 inhibitors” (Hoffmann-La Roche Inc., priority 2015, dated 2018).

The molecules below were run against T1, BACE1 (Homo sapiens, UniProt P56817) (assay: Cellular Aβ-lowering assay (Abeta 40 AlphaLISA, HEK293 APP cells)). Details: 18-20 hrs incubation, Aβ 40 in culture supernatant, read-out: BACE1 cell act. Aβ40 IC50.
T1 construct: endogenous in cells; host or cells: HEK293 APP cells
Type: cell-based
Protocol: Cellular Aβ-Lowering Assay:
The Abeta 40 AlphaLISA Assay can be used. The HEK293 APP cells were seeded in 96 well Microtiter plates in cell culture medium (Iscove's, plus 10% (v/v) fetal bovine serum, penicillin/streptomycin) to about 80% confluency and the compounds were added at a 3× concentration in ⅓ volume of culture medium (final DMSO concentration was kept at 1% v/v). After 18-20 hrs incubation at 37° C. and 5% CO2 in a humidified incubator, the culture supernatants were harvested for the determination of Aβ 40 concentrations using Perkin-Elmer Human Amyloid beta 1-40 (high specificity) Kit (Cat#AL275C).
In a Perkin-Elmer White Optiplate-384 (Cat#6007290), 2 ul culture supernatants were combined with 2 μl of a 10× AlphaLISA Anti-hAβAcceptor beads + Biotinylated Antibody Anti-Aβ 1-40 Mix (50 μg/mL/5 nM). After 1 hour room temperature incubation, 16 μl of a 1.25× preparation of Streptavidin (SA) Donor beads (25 μg/mL) were added and incubated for 30 minutes in the Dark. Light Emission at 615 nm was then recorded using EnVision-Alpha Reader. Levels of Aβ 40 in the culture supernatants were calculated as percentage of maximum signal (cells treated with 1% DMSO without inhibitor). The IC50 values were calculated using the Excel XLfit software.

T1 sequence (P56817 46-501): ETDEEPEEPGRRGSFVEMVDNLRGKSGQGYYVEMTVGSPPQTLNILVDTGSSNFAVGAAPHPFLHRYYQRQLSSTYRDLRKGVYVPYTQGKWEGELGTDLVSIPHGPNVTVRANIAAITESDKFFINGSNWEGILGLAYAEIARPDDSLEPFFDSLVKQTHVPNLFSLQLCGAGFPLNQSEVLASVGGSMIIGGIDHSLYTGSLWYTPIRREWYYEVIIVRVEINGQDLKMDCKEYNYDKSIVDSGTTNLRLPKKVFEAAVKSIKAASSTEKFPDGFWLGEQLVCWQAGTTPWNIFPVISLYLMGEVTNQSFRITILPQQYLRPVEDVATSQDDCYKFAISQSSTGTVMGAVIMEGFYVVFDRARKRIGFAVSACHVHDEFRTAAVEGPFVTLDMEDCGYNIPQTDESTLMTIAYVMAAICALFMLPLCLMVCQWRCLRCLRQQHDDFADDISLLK

SMILES	IC50 [nM]
CN=[S@@]1(=O)C[C@@](CF)(c2cc(-c3cn(-c4ccc(C#N)cn4)nn3)ccc2F)N=C(N)C1(C)C [Example 14, 6-(4-(3-((1R,3S)-5-amino-3-(fluoromethyl)-6,6-dimethyl-1-(methylimino)-1-oxido-3,6-dihydro-2H-1,4-thiazin-3-yl)-4-fluorophenyl)-1H-1,2,3-triazol-1-yl)nicotinonitrile 2,2,2-trifluoroacetate]	103
CN=[S@@]1(=O)C[C@@](CF)(c2cc(-c3cc(-c4ncc(Br)cc4C)no3)ccc2F)N=C(N)C1(C)C [Example 15, (1R,3S)-5-amino-3-(5-(3-(5-bromo-3-methylpyridin-2-yl)isoxazol-5-yl)-2-fluorophenyl)-3-(fluoromethyl)-6,6-dimethyl-1-(methylimino)-3,6-dihydro-2H-1,4-thiazine 1-oxide 2,2,2-trifluoroacetate]	344
CN=[S@@]1(=O)C[C@@](CF)(c2cc(-c3cn(-c4ccc(Cl)cn4)nn3)ccc2F)N=C(N)C1(C)C [Example 16, (1R,3S)-5-amino-3-(5-(1-(5-chloropyridin-2-yl)-1H-1,2,3-triazol-4-yl)-2-fluorophenyl)-3-(fluoromethyl)-6,6-dimethyl-1-(methylimino)-3,6-dihydro-2H-1,4-thiazine 1-oxide 2,2,2-trifluoroacetate]	156
CN=[S@@]1(=O)C[C@@](CF)(c2cc(-c3cc(-c4ncc(OC)cn4)no3)ccc2F)N=C(N)C1(C)C [Example 17, (1R,3S)-3-[2-fluoro-5-[3-(5-methoxypyrimidin-2-yl)isoxazol-5-yl]phenyl]-3-(fluoromethyl)-6,6-dimethyl-1-methylimino-1-oxo-2H-1,4-thiazin-5-amine]	119
CN=[S@]1(=O)C[C@@](C)(c2cc(-c3cc(-c4ncc(OCC(F)F)cn4)no3)ccc2F)N=C(N)C1(C)C [Example 19, (1S,3R)-3-[5-[3-[5-(2,2-difluoroethoxy)pyrimidin-2-yl]isoxazol-5-yl]-2-fluoro-phenyl]-3,6,6-trimethyl-1-methylimino-1-oxo-2H-1,4-thiazin-5-amine]	27
CN=[S@@]1(=O)C[C@@](C)(c2cc(-c3cc(-c4cnc(OCC5CC5)cn4)no3)ccc2F)N=C(N)C1(C)C [Example 22, (1R,3R)-5-amino-3-(5-(3-(5-(cyclopropylmethoxy)pyrazin-2-yl)isoxazol-5-yl)-2-fluorophenyl)-3,6,6-trimethyl-1-(methylimino)-3,6-dihydro-2H-1,4-thiazine 1-oxide]	61
CN=[S@@]1(=O)C[C@@](C)(c2cc(-c3cc(-c4cnc(O)cn4)no3)ccc2F)N=C(N)C1(C)C [Example 23, (1R,3R)-5-amino-3-(2-fluoro-5-(3-(5-hydroxypyrazin-2-yl)isoxazol-5-yl)phenyl)-3,6,6-trimethyl-1-(methylimino)-3,6-dihydro-2H-1,4-thiazine 1-oxide]	> 1000
[2H]C([2H])([2H])N=[S@@]1(=O)C[C@@](C)(c2cc(-c3cc(-c4ncc(CC)cn4)no3)ccc2F)N=C(N)C1(C)C [Example 26, (1R,3R)-3-[5-[3-(5-ethylpyrimidin-2-yl)isoxazol-5-yl]-2-fluoro-phenyl]-3,6,6-trimethyl-1-oxo-1-(trideuteriomethylimino)-2H-1,4-thiazin-5-amine 2,2,2-trifluoroacetate]	37
CN=[S@@]1(=O)C[C@@](C)(c2cc(-c3cc(-c4cnc(OC)cn4)no3)ccc2F)N=C(N)C12CCCC2 [Example 27, (6R,8R)-10-amino-8-(2-fluoro-5-(3-(5-methoxypyrazin-2-yl)isoxazol-5-yl)phenyl)-8-methyl-6-(methylimino)-6-thia-9-azaspiro[4.5]dec-9-ene 6-oxide 2,2,2-trifluoroacetate]	139
CN=[S@@]1(=O)C[C@@](C)(c2cc(-c3cc(-c4ncc(OC)cn4)no3)ccc2F)N=C(N)C12CCCC2 [Example 29, (6R,8R)-10-amino-8-(2-fluoro-5-(3-(5-methoxypyrimidin-2-yl)isoxazol-5-yl)phenyl)-8-methyl-6-(methylimino)-6-thia-9-azaspiro[4.5]dec-9-ene 6-oxide 2,2,2-trifluoroacetate]	20
CN=[S@@]1(=O)C[C@@](C)(c2cc(-c3cc(-c4cnc(OCC(F)F)cn4)no3)ccc2F)N=C(N)C12CCCC2 [Example 30, (6R,8R)-10-amino-8-(5-(3-(5-(2,2-difluoroethoxy)pyrazin-2-yl)isoxazol-5-yl)-2-fluorophenyl)-8-methyl-6-(methylimino)-6-thia-9-azaspiro[4.5]dec-9-ene 6-oxide]	104
COc1cnc(-c2cc(-c3ccc(F)c([C@]4(C)C[S@](=O)(=NC5CC5)C(C)(C)C(N)=N4)c3)on2)cn1 [Example 33, (1R,3R)-5-amino-1-(cyclopropylimino)-3-(2-fluoro-5-(3-(5-methoxypyrazin-2-yl)isoxazol-5-yl)phenyl)-3,6,6-trimethyl-3,6-dihydro-2H-1,4-thiazine 1-oxide]	92

Now those with a lower IC50, led by results:

IC50 [nM]	SMILES
13	CN=[S@@]1(=O)C[C@@](C)(c2cc(-c3cc(-c4ncc(OCC(F)F)cn4)no3)ccc2F)N=C(N)C1(C)C [Example 18, (1R,3R)-3-[5-[3-[5-(2,2-difluoroethoxy)pyrimidin-2-yl]isoxazol-5-yl]-2-fluoro-phenyl]-3,6,6-trimethyl-1-methylimino-1-oxo-2H-1,4-thiazin-5-amine]
13	[2H]C([2H])([2H])N=[S@@]1(=O)C[C@@](C)(c2cc(-c3cc(-c4ncc(OCC(F)(F)C(F)F)cn4)no3)ccc2F)N=C(N)C1(C)C [Example 25, (1R,3R)-3-[2-fluoro-5-[3-[5-(2,2,3,3-tetrafluoropropoxy)pyrimidin-2-yl]isoxazol-5-yl]phenyl]-3,6,6-trimethyl-1-oxo-1-(trideuteriomethylimino)-2H-1,4-thiazin-5-amine 2,2,2-trifluoroacetate]
13	CC1(C)C(N)=N[C@](C)(c2cc(-c3cc(-c4ncc(Cl)cn4)no3)ccc2F)C[S@]1(=O)=NC1CC1 [Example 34, (1R,3R)-3-[5-[3-(5-chloropyrimidin-2-yl)isoxazol-5-yl]-2-fluoro-phenyl]-1-cyclopropylimino-3,6,6-trimethyl-1-oxo-2H-1,4-thiazin-5-amine 2,2,2-trifluoroacetate]
9	CN=[S@@]1(=O)C[C@@](C)(c2cc(-c3cc(-c4cnc(OCC(F)(F)F)cn4)no3)ccc2F)N=C(N)C1(C)C [Example 21, (1R,3R)-5-amino-3-(2-fluoro-5-(3-(5-(2,2,2-trifluoroethoxy)pyrazin-2-yl)isoxazol-5-yl)phenyl)-3,6,6-trimethyl-1-(methylimino)-3,6-dihydro-2H-1,4-thiazine 1-oxide 2,2,2-trifluoroacetate]
7	CC1(C)C(N)=N[C@](C)(c2cc(-c3cc(-c4ncc(Cl)cn4)no3)ccc2F)C[S@@]1(=O)=NC1CC1 [Example 36, (1S,3R)-5-amino-3-(5-(3-(5-chloropyrimidin-2-yl)isoxazol-5-yl)-2-fluorophenyl)-1-(cyclopropylimino)-3,6,6-trimethyl-3,6-dihydro-2H-1,4-thiazine 1-oxide 2,2,2-trifluoroacetate]
3	CN=[S@@]1(=O)C[C@@](C)(c2cc(-c3cc(-c4ncc(OC)cn4)no3)ccc2F)N=C(N)C1(C)C [Example 20, (1R,3R)-5-amino-3-(2-fluoro-5-(3-(5-methoxypyrimidin-2-yl)isoxazol-5-yl)phenyl)-3,6,6-trimethyl-1-(methylimino)-3,6-dihydro-2H-1,4-thiazine 1-oxide]
